Assays:
ZmADK2 [1] = target: T1, ZmADK2 (Zea mays, UniProt B4FFH8, T4S); experiment: Binding affinity by microscale thermophoresis (MST); conditions: MST
Protocol: (§1) The microscale thermophoresis (MST) method was used to determine the binding affinity of various ribosides for ZmADK2 and PpADK1. Proteins were fluorescently labeled with RED-tris-NTA dye (www.nanotemper-technologies.com) using a 1:1 dye/protein molar ratio. The labeled protein was adjusted to 100–300 nM in 50 mM HEPES buffer pH 7.5, 1 mM MgCl2, and 0.2% Tween. Measurements were performed in premium capillaries on a Monolith NT.115 instrument at 30 °C with 5 s/30 s/5 s laser off/on/off times, respectively, with continuous sample fluorescence recording. Thermal stability was measured by nano-differential scanning fluorimetry on a Prometheus NT.48 instrument (www.nanotemper-technologies.com) in various buffers covering a pH (7.0–9.5) and temperature range (25–95 °C), with a heating rate of 1 °C min^–1, and using NT melting control software. Protein unfolding was measured by detecting the temperature-induced change in tryptophan fluorescence intensity at emission wavelengths of 330±5 nm and 350±5 nm. The melting temperature (Tm) was deduced from the maximum of the first derivative of the fluorescence ratios F350/F330.

ZmADK2 [2] = target: T1, ZmADK2; experiment: ADK activity, coupled reaction with PK and LDH; assay type: biochemical; conditions: ZmADK2; 100 µM substrate; 10 mM ATP; pH 7.5; 30 °C
Protocol: Substrate analogs were purchased from Sigma-Aldrich (www.sigmaaldrich.com). The ADK activity was measured spectrophotometrically on an Agilent 8453 UV-Vis spectrophotometer (www.agilent.com) at 30 °C using a coupled reaction with pyruvate kinase (PK) and lactate dehydrogenase (LDH) (www.sigmaaldrich.com) ([Blondin et al., 1994]). In this assay, PK converts ADP produced by ADK and phosphoenolpyruvate (PEP) to pyruvate. Subsequently, LDH then converts pyruvate to lactate using the coenzyme NADH, with the conversion monitored at 340 nm. The reaction was conducted in 50 mM Tris–HCl buffer at pH 7.5, containing 50 mM KCl, 6 mM MgCl2, 300 µM PEP, 200 µM NADH, 10 mM ATP, 2 U of PK, and 2.5 U of LDH, using various nucleoside substrates. Kinetic constants were determined using GraphPad Prism 8.0 software (www.graphpad.com). Each measurement was performed six times using repetitive purified enzymes. The activities of all five ADKs were also measured by HPLC ([Moffatt et al., 1991]). The reaction mixture comprised 50 mM Tris–HCl pH 7.5, 5 mM MgCl2, 0.5 mM DTT, 30 mM NaF, 5 mM ATP, 40 µM substrate, and 2–150 ng of purified ADK, depending on the isoform. The reaction was incubated at 30 °C for up to 1 h. […] Similarly, the conversion of cytokinin ribosides to monophosphates was followed on a LiChrosphere 60 RP-Select B (5 µm) LiChroCART column 125-4 column equilibrated with 10 mM triethylamine at pH 5.4 plus 10% methanol, and stepwise eluted with 100% methanol.

ZmADK2 and PpADK1 = experiment: Binding affinity by MST (summary for both enzymes); parameters: species or system Zea mays, Physcomitrella patens; conditions: range over ZmADK2 and PpADK1
Protocol: as §1

ZmADK3 = ZmADK3 (Zea mays, UniProt A0A1D6E5Z5); experiment: ADK activity, coupled reaction with PK and LDH; assay type: biochemical
Protocol: Substrate analogs were purchased from Sigma-Aldrich (www.sigmaaldrich.com). […] In this assay, PK converts ADP produced by ADK and phosphoenolpyruvate (PEP) to pyruvate. Subsequently, LDH then converts pyruvate to lactate using the coenzyme NADH, with the conversion monitored at 340 nm. The reaction was conducted in 50 mM Tris–HCl buffer at pH 7.5, containing 50 mM KCl, 6 mM MgCl2, 300 µM PEP, 200 µM NADH, 10 mM ATP, 2 U of PK, and 2.5 U of LDH, using various nucleoside substrates. Kinetic constants were determined using GraphPad Prism 8.0 software (www.graphpad.com). Each measurement was performed six times using repetitive purified enzymes. […] The reaction mixture comprised 50 mM Tris–HCl pH 7.5, 5 mM MgCl2, 0.5 mM DTT, 30 mM NaF, 5 mM ATP, 40 µM substrate, and 2–150 ng of purified ADK, depending on the isoform. The reaction was incubated at 30 °C for up to 1 h.

all three maize ADKs = experiment: ADK activity, coupled reaction (summary for maize enzymes); assay type: biochemical, Zea mays; conditions: saturating 100 µM concentration
Protocol: (§2) Substrate analogs were purchased from Sigma-Aldrich (www.sigmaaldrich.com). The ADK activity was measured spectrophotometrically on an Agilent 8453 UV-Vis spectrophotometer (www.agilent.com) at 30 °C using a coupled reaction with pyruvate kinase (PK) and lactate dehydrogenase (LDH) (www.sigmaaldrich.com) ([Blondin et al., 1994]). In this assay, PK converts ADP produced by ADK and phosphoenolpyruvate (PEP) to pyruvate. Subsequently, LDH then converts pyruvate to lactate using the coenzyme NADH, with the conversion monitored at 340 nm. The reaction was conducted in 50 mM Tris–HCl buffer at pH 7.5, containing 50 mM KCl, 6 mM MgCl2, 300 µM PEP, 200 µM NADH, 10 mM ATP, 2 U of PK, and 2.5 U of LDH, using various nucleoside substrates. Kinetic constants were determined using GraphPad Prism 8.0 software (www.graphpad.com). Each measurement was performed six times using repetitive purified enzymes. The activities of all five ADKs were also measured by HPLC ([Moffatt et al., 1991]). The reaction mixture comprised 50 mM Tris–HCl pH 7.5, 5 mM MgCl2, 0.5 mM DTT, 30 mM NaF, 5 mM ATP, 40 µM substrate, and 2–150 ng of purified ADK, depending on the isoform. The reaction was incubated at 30 °C for up to 1 h. […]

both moss enzymes = experiment: ADK activity, coupled reaction (summary for moss enzymes); assay type: biochemical, Physcomitrella patens; conditions: saturating 100 µM concentration
Protocol: as §2

ZmADK3 R132A variant = ZmADK3 R132A variant (Zea mays, UniProt A0A1D6E5Z5, R132A); experiment: Binding affinity by MST
Protocol: (§3) All ZmADK3 mutants were cloned by 30 cycle PCRs using tail-to-tail oriented phosphorylated primers, with the mutation being located at the 5′ end of one of the primers. The following mutants were cloned using the primers given in Supplementary Table S1: D19A, R132A, N222A, E225A, N295A, and D299A. The products were treated with DpnI restriction enzyme, gel purified, and ligated using T4 DNA ligase (www.thermofisher.com). Clones were transformed into T7 express I^qE. coli competent cells.
as §1

ZmADK3 N222A variant = ZmADK3 N222A variant (Zea mays, UniProt A0A1D6E5Z5, N222A); experiment: Binding affinity by MST
Protocol: as §3, §1

ZmADK3 D19A variant = ZmADK3 D19A variant (Zea mays, UniProt A0A1D6E5Z5, D19A); experiment: Binding affinity by MST
Protocol: as §3, §1

ZmADK3 D299A variant = ZmADK3 D299A variant (Zea mays, UniProt A0A1D6E5Z5, D299A); experiment: Binding affinity by MST
Protocol: as §3, §1

ZmADK3 E225A variant = ZmADK3 E225A variant (Zea mays, UniProt A0A1D6E5Z5, E225A); experiment: Binding affinity by MST
Protocol: as §3, §1

PpADK1 = target: T2, PpADK1 (Physcomitrium patens, UniProt O49923); experiment: Binding affinity by microscale thermophoresis (MST); parameters: species or system Physcomitrella patens; conditions: 50 mM HEPES pH 7.5, 1 mM MgCl2, first or only binding event, read-out: KD
T2 construct: made in house; host or cells: E. coli T7 Express Iq
Protocol: as §1

all five ADKs = experiment: ADK kinetics, coupled reaction (summary for all isoforms); assay type: biochemical, Zea mays, Physcomitrella patens; conditions: range over all five ADKs
Protocol: as §2

ZmADK3, sequence (A0A1D6E5Z5 entry or part of it): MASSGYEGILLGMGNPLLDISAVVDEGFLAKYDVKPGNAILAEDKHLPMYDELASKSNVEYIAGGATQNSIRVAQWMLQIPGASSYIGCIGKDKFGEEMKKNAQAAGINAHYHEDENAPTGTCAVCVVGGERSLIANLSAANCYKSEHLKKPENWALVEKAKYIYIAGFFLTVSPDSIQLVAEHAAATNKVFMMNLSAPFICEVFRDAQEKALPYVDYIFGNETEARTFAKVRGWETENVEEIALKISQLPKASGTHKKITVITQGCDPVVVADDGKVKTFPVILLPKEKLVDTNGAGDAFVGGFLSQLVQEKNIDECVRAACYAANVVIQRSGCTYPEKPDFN
T1 sequence (B4FFH8 1-342 T4S): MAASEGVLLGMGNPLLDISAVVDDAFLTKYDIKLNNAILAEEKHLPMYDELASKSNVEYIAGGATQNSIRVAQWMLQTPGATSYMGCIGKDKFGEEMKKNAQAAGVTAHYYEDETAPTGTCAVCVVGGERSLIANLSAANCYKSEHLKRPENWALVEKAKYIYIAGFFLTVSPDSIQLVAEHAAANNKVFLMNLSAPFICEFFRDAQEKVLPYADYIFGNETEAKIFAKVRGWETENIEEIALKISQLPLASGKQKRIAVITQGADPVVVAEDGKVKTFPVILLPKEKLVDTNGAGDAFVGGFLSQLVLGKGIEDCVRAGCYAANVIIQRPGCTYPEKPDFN
ZmADK3 D299A variant, sequence (A0A1D6E5Z5 entry or part of it D299A): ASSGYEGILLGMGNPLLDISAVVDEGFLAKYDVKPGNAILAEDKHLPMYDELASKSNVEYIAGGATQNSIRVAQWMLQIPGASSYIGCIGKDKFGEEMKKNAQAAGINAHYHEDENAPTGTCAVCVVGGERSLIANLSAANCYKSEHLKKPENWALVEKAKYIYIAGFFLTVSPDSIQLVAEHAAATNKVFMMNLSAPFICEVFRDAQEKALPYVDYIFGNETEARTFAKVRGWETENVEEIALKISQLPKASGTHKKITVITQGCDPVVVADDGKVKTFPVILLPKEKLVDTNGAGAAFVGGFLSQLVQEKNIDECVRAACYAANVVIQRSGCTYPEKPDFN
ZmADK3 E225A variant, sequence (A0A1D6E5Z5 entry or part of it E225A): as the sequence (A0A1D6E5Z5 entry or part of it D299A) above, with E224A, A298D counted along it
ZmADK3 N222A variant, sequence (A0A1D6E5Z5 entry or part of it N222A): as the sequence (A0A1D6E5Z5 entry or part of it D299A) above, with N221A, A298D counted along it
ZmADK3 R132A variant, sequence (A0A1D6E5Z5 entry or part of it R132A): as the sequence (A0A1D6E5Z5 entry or part of it D299A) above, with R131A, A298D counted along it
ZmADK3 D19A variant, sequence (A0A1D6E5Z5 entry or part of it D19A): as the sequence (A0A1D6E5Z5 entry or part of it D299A) above, with D18A, A298D counted along it
T2 sequence (O49923 whole entry): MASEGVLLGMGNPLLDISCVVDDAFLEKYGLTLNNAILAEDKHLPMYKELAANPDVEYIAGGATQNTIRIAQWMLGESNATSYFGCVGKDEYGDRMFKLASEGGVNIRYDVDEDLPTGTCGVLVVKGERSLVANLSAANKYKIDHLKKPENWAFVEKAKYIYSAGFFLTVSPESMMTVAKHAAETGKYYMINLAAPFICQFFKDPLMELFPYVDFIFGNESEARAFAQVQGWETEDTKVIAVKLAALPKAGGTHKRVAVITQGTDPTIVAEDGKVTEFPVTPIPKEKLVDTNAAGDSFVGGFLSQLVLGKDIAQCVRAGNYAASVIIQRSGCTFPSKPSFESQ

`Nc1ncnc2c1ncn2[C@@H]1O[C@H](CO)[C@@H](O)[C@H]1O` [Ado, adenosine] gave a Kd (ZmADK2 [1]; KD, 50 mM HEPES pH 7.5, 1 mM MgCl2, first or only binding event) of 0.4 ± 0.14 µM, a Kd (ZmADK2 [1]; second KD value, KD(2), second binding event (ATP site)) of roughly 1500 µM and a Kd (ZmADK2 [1]; second KD value, second binding event (ATP site)) of 1480 ± 230 µM. The Specific activity (ZmADK2 [2]) was 40.3±1.4 nmol s^–1 mg^–1, the Kd (ZmADK2 and PpADK1) was 0.4 to 0.7 µM and the Specific activity (ZmADK3; WT ZmADK3, 100 µM Ado, 10 mM ATP, 30 °C) was 31.0±0.8 nkat mg^–1. The Relative rate (ZmADK3; WT ZmADK3, 100 µM Ado, relative to WT) was 100.0%, the Specific activity (ZmADK3; ZmADK3, 100 µM substrate, 10 mM ATP, pH 7.5, 30 °C) was 30.0±1.1 nmol s^–1 mg^–1 and the kcat (ZmADK3; ZmADK3, 10 mM ATP, pH 7.5, 30 °C) was 1.18±0.03 s^–1. The activity (all three maize ADKs) was 30–40 nkat mg^–1, the activity (both moss enzymes) was 4–5 nkat mg^–1 and the Kd (ZmADK3 R132A variant) was 0.27 ± 0.04 µM. For the same compound, the Kd (ZmADK3 N222A variant) was 0.3 ± 0.13 µM, the Kd (ZmADK3 D19A variant) was 989 ± 161 µM and the Kd (ZmADK3 D299A variant) was 10.3 ± 4.1 µM. For the same compound, the “lower affinity for Ado than the WT” value (ZmADK3 D299A variant; D299A variant of ZmADK3) was ~ 37 times, the Kd (ZmADK3 E225A variant) was 0.32 ± 0.09 µM and the Kd (PpADK1) was 0.7 µM. The Km (all five ADKs) was 0.5 to 0.7 µM.
